Assay results published in US11352350B2, “IRAK degraders and uses thereof” (Kymera Therapeutics, Inc., priority 2018, dated 2022).
pIC50: −log10 of the molar value.

Tests used:
IRAK4 [1] = target: T1, IRAK4 (Homo sapiens (Human), UniProt Q9NWZ3); experiment: hPBMC IRAK4 degradation flow assay; assay type: cell-based; conditions: hPBMC monocyte
In short: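 Thawed human PBMCs treated with 10-point, 5-fold compound dilutions (0.1% DMSO) at 37° C. for 20 hours or 4 hours. IRAK4 measured by flow MFI in CD14+ monocytes and CD14− lymphocytes, normalized to DMSO and 10 μM 20-hour control; DC50 and max degradation from 4-parameter logistic fit.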

OCI-LY10 = experiment: CTG Cell Viability Assay - OCI-LY10; assay type: cell-based, human; conditions: Homo sapiens, OCI-Ly10, 96 h, OCI-LY10, 4 days; read-out: CTG Cell Viability Assay - OCI-LY10: Average external-IC50
In short: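 Viability read by CellTiter-Glo luminescence after 4 days at 37° C under 5% CO2 with compound (top 10 μM final, 1:3 steps, 9 doses, DMSO 0.2%). Three-parameter logistic fit gave IC50.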

IRAK4 [2] = target: T1, IRAK4; experiment: IRAK4 MSD degradation in OCI-LY10; assay type: cell-based
In short: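 Remaining IRAK4 quantified by electrochemiluminescent MSD sandwich assay with two anti-IRAK4 antibodies. Compounds were dosed as 8 concentrations in 1:3 steps from a 1 to 10 μM final top on OCI-LY10 cells, incubated 4 to 24 h at 37° C. under 5% CO2. DC50 fitted with a three-parameter logistic curve.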

IL-6 = IL-6 secretion in hPBMC using R848 stimulation; assay type: cell-based, human; conditions: Homo sapiens, 20 h, hPBMC, R848 as stim, t = 20 h
[3] = 20 hr, flow assay, read-out: IRAK4 degradation in hPBMC monocyte at 20 hr: Average external Abs DC50
[4] = OCI-LY10, 4 hrs, MSD, read-out: IRAK4 MSD degradation in OCI-LY10 at 4 hrs: Average external-Abs DC50
[5] = OCI-LY10, 24 hrs, MSD, read-out: IRAK4 MSD degradation in OCI-LY10 at 24 hrs: Average external-Abs DC50
[6] = 20 hrs, read-out: IRAK4 degradation in hPBMC monocyte: DC50
[7] = OCI-LY10, 4 hrs, read-out: IRAK4 MSD degradation in OCI-LY10 at 4 hrs: DC50

T1 sequence (Q9NWZ3 whole entry): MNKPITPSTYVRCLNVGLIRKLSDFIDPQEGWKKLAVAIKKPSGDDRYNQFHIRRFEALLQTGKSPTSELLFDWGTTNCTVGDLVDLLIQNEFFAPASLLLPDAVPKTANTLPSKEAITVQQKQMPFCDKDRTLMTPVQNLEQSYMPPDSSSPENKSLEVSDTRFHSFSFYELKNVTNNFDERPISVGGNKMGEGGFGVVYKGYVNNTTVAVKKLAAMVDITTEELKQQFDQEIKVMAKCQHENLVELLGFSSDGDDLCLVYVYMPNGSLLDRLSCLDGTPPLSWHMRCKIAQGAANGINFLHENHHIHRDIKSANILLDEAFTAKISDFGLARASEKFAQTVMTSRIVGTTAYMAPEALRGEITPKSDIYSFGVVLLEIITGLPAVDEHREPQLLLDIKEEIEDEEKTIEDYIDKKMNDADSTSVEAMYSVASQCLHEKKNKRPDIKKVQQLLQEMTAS

Row | Structure (SMILES) | DC50 (IRAK4 [1]; [3]) | pIC50 (OCI-LY10) | DC50 (IRAK4 [2]; [4]) | DC50 (IRAK4 [2]; [5]) | pIC50 (IL-6) | DC50 (IRAK4 [1]; [6]) | DC50 (IRAK4 [2]; [7])
1 | CC[C@@H]1[C@H](F)C(=O)N[C@@H]1COc1ncc(C#C[C@H]2CC[C@H](CN(C)CCCOCCCc3ccc4c(c3)n(C)c(=O)n4C3CCC(=O)NC3=O)CC2)c2cc(C(N)=O)c(OC)cc12 (stereo partly shown) [I-185] | < 10 nM | < 6.00 | 10 to 100 nM | 10 to 100 nM | > 9.00 |  | 
2 | CN(CC1CCN(c2cccc3c2C(=O)N(C2CCC(=O)NC2=O)C3=O)CC1)C[C@H]1CC[C@H](n2cc3cc(NC(=O)c4cccc(C(F)(F)F)n4)c(C(C)(C)O)cc3n2)CC1 (stereo partly shown) [I-317] | 10 to 100 nM | < 6.00 | 10 to 100 nM | 10 to 100 nM | 8.00 to 9.00 |  | 
3 | CN(CC(CCCOCCCc1cccc2c1n(C)c(=O)n2C1CCC(=O)NC1=O)C(=O)O)C[C@H]1CC[C@H](n2cc(NC(=O)c3coc(-c4ccnc(NCC5CC5)c4)n3)c(C(F)F)n2)CC1 (stereo partly shown) [I-396, 2-[[[4-[4-[[2-[2-(Cyclopropylmethylamino)-4-pyridyl]oxazole-4-carbonyl]amino]-3-(difluoromethyl)pyrazol-1-yl]cyclohexyl]methyl-methyl-amino]methyl]-5-[3-[1-(2,6-dioxo-3-piperidyl)-3-methyl-2-oxo-benzimidazol-4-yl]propoxy]pentanoic acid] | 10 to 100 nM | 7.00 to 7.30 | 10 to 100 nM |  | 8.00 to 9.00 |  | 
4 | CN(C[C@@H]1CN(Cc2cccc3c2n(C)c(=O)n3C2CCC(=O)NC2=O)CCO1)C[C@H]1CC[C@H](n2cc(NC(=O)c3cnn4ccc(N5C[C@H]6C[C@@H]5CO6)nc34)c(C(F)F)n2)CC1 (stereo partly shown) [I-411] | 10 to 100 nM | < 6.00 | > 1000 nM |  | > 9.00 |  | 
5 | Cn1c(=O)n(C2CCC(=O)NC2=O)c2cccc(CCC(=O)N3CCC4(CC3)CN(C[C@H]3CC[C@H](n5cc(NC(=O)c6cnn7ccc(N8C[C@H]9C[C@@H]8CO9)nc67)c(C(F)F)n5)CC3)C4)c21 (stereo partly shown) [I-414] | < 10 nM | < 6.00 | < 10 nM |  | > 9.00 |  | 
6 | Cn1c(=O)n(C2CCC(=O)NC2=O)c2cccc(CCC(=O)C3CC4(CCN(C[C@H]5CC[C@H](n6cc(NC(=O)c7cnn8ccc(N9C[C@H]%10C[C@@H]9CO%10)nc78)c(C(F)F)n6)CC5)CC4)C3)c21 (stereo partly shown) [I-415] | < 10 nM | < 6.00 | < 10 nM |  | > 9.00 |  | 
7 | Cn1c(=O)n(C2CCC(=O)NC2=O)c2cccc(CCCC3CCN(C[C@H]4CC[C@H](n5cc(NC(=O)c6cnn7ccc(N8C[C@H]9C[C@@H]8CO9)nc67)c(C(F)F)n5)CC4)CC3)c21 (stereo partly shown) [I-416] | < 10 nM | < 6.00 | < 10 nM |  | > 9.00 |  | 
8 | Cn1c(=O)n(C2CCC(=O)NC2=O)c2cccc(C#CCN3CCC4(CC3)CN(C(=O)[C@H]3CC[C@H](n5cc(NC(=O)c6cnn7ccc(N8C[C@H]9C[C@@H]8CO9)nc67)c(C(F)F)n5)CC3)C4)c21 (stereo partly shown) [I-418] | 10 to 100 nM | < 6.00 | 10 to 100 nM |  | 8.00 to 9.00 |  | 
9 | CN(CCCOCCCc1cccc2c1n(C)c(=O)n2C1CCC(=O)NC1=O)C[C@H]1CC[C@H](n2cc(NC(=O)c3cnn4ccc(N5CCCCC5)nc34)c(C(F)F)n2)CC1 (stereo partly shown) [I-419] | < 10 nM | < 6.00 | 10 to 100 nM |  | 8.00 to 9.00 |  | 
10 | Cn1c(=O)n(C2CCC(=O)NC2=O)c2cccc(CCN3CC4(CCN(C(=O)[C@H]5CC[C@H](n6cc(NC(=O)c7cnn8ccc(N9C[C@H]%10C[C@@H]9CO%10)nc78)c(C(F)F)n6)CC5)CC4)C3)c21 (stereo partly shown) [I-420] | < 10 nM | > 7.30 | < 10 nM |  | > 9.00 |  | 
11 | Cn1c(=O)n(C2CCC(=O)NC2=O)c2cccc(CC(=O)N3CC4(CCN(C[C@H]5CC[C@H](n6cc(NC(=O)c7cnn8ccc(N9C[C@H]%10C[C@@H]9CO%10)nc78)c(C(F)F)n6)CC5)CC4)C3)c21 (stereo partly shown) [I-421] | < 10 nM | < 6.00 | < 10 nM |  | > 9.00 |  | 
12 | Cn1c(=O)n(C2CCC(=O)NC2=O)c2cccc(CCCN3CCC4(CC3)CN(C(=O)[C@H]3CC[C@H](n5cc(NC(=O)c6cnn7ccc(N8C[C@H]9C[C@@H]8CO9)nc67)c(C(F)F)n5)CC3)C4)c21 (stereo partly shown) [I-422] | < 10 nM | < 6.00 | 10 to 100 nM |  | > 9.00 |  | 
13 | Cn1c(=O)n(C2CCC(=O)NC2=O)c2cccc(CC3CC4(CCN(C(=O)c5ccc(-n6cc(NC(=O)c7cnn8ccc(N9C[C@H]%10C[C@@H]9CO%10)nc78)c(C(F)F)n6)cc5)CC4)C3)c21 (stereo partly shown) [I-423] | < 10 nM | < 6.00 | 100 to 1000 nM |  | 8.00 to 9.00 |  | 
14 | Cn1c(=O)n(C2CCC(=O)NC2=O)c2cccc(CCCN3CCOC4(CCN(C(=O)c5ccc(-n6cc(NC(=O)c7cnn8ccc(N9C[C@H]%10C[C@@H]9CO%10)nc78)c(C(F)F)n6)cc5)CC4)C3)c21 (stereo partly shown) [I-424] | < 10 nM | < 6.00 | < 10 nM |  | 8.00 to 9.00 |  | 
15 | Cn1c(=O)n(C2CCC(=O)NC2=O)c2cccc(C[C@H]3CC[C@H](N(C)C[C@H]4CC[C@H](n5cc(NC(=O)c6cnn7ccc(N8C[C@H]9C[C@@H]8CO9)nc67)c(C(F)F)n5)CC4)CC3)c21 (stereo partly shown) [I-508] |  | < 6.00 |  |  | 8.00 to 9.00 | < 10 nM | 
16 | Cn1c(=O)n(C2CCC(=O)NC2=O)c2cccc(CN3CCN(CC[C@H]4CC[C@H](n5cc(NC(=O)c6cnn7ccc(N8C[C@H]9C[C@@H]8CO9)nc67)c(C(F)F)n5)CC4)CC3)c21 (stereo partly shown) [I-510] |  | < 6.00 |  |  | 8.00 to 9.00 | < 10 nM | 
17 | C[C@@H]1CN(c2ccn3ncc(C(=O)NC4=NC([C@H]5CC[C@H](CN6CCC(CC#Cc7cccc8c7n(C)c(=O)n8C7CCC(=O)NC7=O)CC6)CC5)N=C4C(F)F)c3c2)C[C@@H](C)O1 (stereo partly shown) [I-528] |  |  |  |  | 8.00 to 9.00 | < 10 nM | 10 to 100 nM
18 | C[C@@H]1CN(c2ccn3ncc(C(=O)NC4=NC([C@H]5CC[C@H](CN6CCC(CC#Cc7cccc8c7n(C)c(=O)n8C7CCC(=O)NC7=O)CC6)CC5)N=C4C(F)F)c3c2)C[C@H](C)O1 (stereo partly shown) [I-530] |  |  |  |  | > 9.00 | < 10 nM | 10 to 100 nM
19 | C[C@@H]1CN(c2ccn3ncc(C(=O)NC4=NC([C@H]5CC[C@H](CN6CCC(CCCc7cccc8c7n(C)c(=O)n8C7CCC(=O)NC7=O)CC6)CC5)N=C4C(F)F)c3n2)C[C@@H](C)O1 (stereo partly shown) [I-537] |  |  |  |  | 8.00 to 9.00 | < 10 nM | < 10 nM
20 | C[C@@H]1CN(c2ccn3ncc(C(=O)Nc4cn([C@H]5CC[C@H](CN6CCC(CCCc7cccc8c7n(C)c(=O)n8C7CCC(=O)NC7=O)CC6)CC5)nc4C(F)F)c3n2)C[C@H](C)O1 (stereo partly shown) [I-540] |  |  |  |  | 8.00 to 9.00 | < 10 nM | 10 to 100 nM
21 | C[C@H]1CN(c2ccn3ncc(C(=O)NC4=NC([C@H]5CC[C@H](CN6CCC(CCCc7cccc8c7n(C)c(=O)n8C7CCC(=O)NC7=O)CC6)CC5)N=C4C(F)F)c3n2)C[C@H](C)O1 (stereo partly shown) [I-543] |  |  |  |  | > 9.00 | < 10 nM | 10 to 100 nM
22 | Cn1c(=O)n(C2CCC(=O)NC2=O)c2cccc(C#CCOC3CCN(C[C@H]4CC[C@H](n5cc(NC(=O)c6cnn7ccc(N8C[C@H]9CC[C@@H](C8)O9)nc67)c(C(F)F)n5)CC4)CC3)c21 (stereo partly shown) [I-547] |  |  |  |  | 8.00 to 9.00 | < 10 nM | < 10 nM
23 | C[C@H]1CN(c2ccn3ncc(C(=O)NC4=NC([C@H]5CC[C@H](CN6CCC(CC#Cc7cccc8c7n(C)c(=O)n8C7CCC(=O)NC7=O)CC6)CC5)N=C4C(F)F)c3n2)C[C@H](C)O1 (stereo partly shown) [I-549] |  |  |  |  | 8.00 to 9.00 | < 10 nM | 10 to 100 nM
